Data from patent US5059624A, “Guanidine derivatives having hypotensive activity, composition containing them and process for obtaining them” (Consiglio Nazionale Delle Ricerche, priority 1988, dated 1991).
Where a SMILES comes first, the peptide text is derived from it.

System: male Wistar rats
Assay: Comparison with known active ingredients in male Wistar rats under sodium thiopental anaesthesia, rapid i.v. or 5 min infusion
Type: in vivo, rat (male Wistar)
Procedure: In order to compare the activity of the compounds of the present invention to that of the products of the prior art, various doses of known anti-hypertensive, hypotensive and vasoactive drugs were administered to male Wistar rats under general anaesthesia by sodium thiopental (50 mg/kg, i.p.). The administration was effected through "rapid" i.v. route or through intravenous infusion (inf.) for a time of 5 minutes.
The dose of each product is referred to the base, and the volumes injected were of 100 mcl in case of i.v. administration and […] total (0.9% sodium chloride solution) in case of infusion. The various parameters were evaluated in the same way as in the preceding experiments.

[1] = 0.75 mcg/kg, i.v., maximum response
[2] = 2.5 mg/kg, i.v., maximum response
[3] = 5 mcg/kg, i.v., maximum response

NC(N)=NCCC[C@H](NC(=O)[C@H](Cc1ccccc1)NC(=O)[C@@H]1CCCN1C(=O)[C@H](CO)NC(=O)[C@H](Cc1ccccc1)NC(=O)CNC(=O)[C@@H]1CCCN1C(=O)[C@@H]1CCCN1C(=O)[C@@H](N)CCCN=C(N)N)C(=O)O [Bradykinin] (H-RPPGFSPFR-OH)
Δ AP DIASTOLIC [1]: -18 ± 4 mmHg | Δ AP SYSTOLIC [1]: -18 ± 3 mmHg | Δ HR [1]: -11 ± 2 beats/min | Δ dp/dt [1]: -830 ± 124 mmHg/sec

Clc1cccc(Cl)c1N=C1NCCN1 [Clonidine]
general effects on the various haemodynamic parameters (in words) (rat, in vivo): general "depressive" effects | Δ AP DIASTOLIC (rat, in vivo): -9 ± 1 mmHg | Δ AP SYSTOLIC (rat, in vivo): -15 ± 4 mmHg | Δ HR (rat, in vivo): -40 ± 8 beats/min | Δ dp/dt (rat, in vivo): -871 ± 74

N=C(N)NCCN1CCCCCCC1 [Guanetidine]
Δ HR (rat, in vivo): -18 ± 6 beats/min | Δ dp/dt (rat, in vivo): -863 ± 160

C[N+](C)(C)CCCCCC[N+](C)(C)C [Hexameton]
Δ AP DIASTOLIC [2]: -34 ± 2 mmHg | Δ AP SYSTOLIC [2]: -44 ± 2 mmHg | Δ HR [2]: -48 ± 9 beats/min | Δ dp/dt [2]: -4040 ± 812 mmHg/sec

NCCc1c[nH]cn1 [Histamine]
Δ AP DIASTOLIC [3]: -28 ± 3 mmHg | Δ AP SYSTOLIC [3]: -30 ± 3 mmHg | Δ HR [3]: -7 ± 1 beats/min | Δ dp/dt [3]: -1314 ± 180 mmHg/sec
